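Five concentrations, 48 hours, 96-well plates. GI50 is the concentration that inhibits growth by half.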 Calls of active or inactive are those of the source. No stated cut-off is given here; in the data, active = GI50 up to about 1.1 µM and inactive = higher.
Key:
Assay in all cases: inhibition of tumour cell growth, NCI panel, 48 h
A498 = tested on: A498
BT-549 = tested on: BT-549
HCC 2998 = tested on: HCC 2998
SF-539 = tested on: SF-539
SK-MEL-2 = tested on: SK-MEL-2
SW-620 = tested on: SW-620
PC-3 = tested on: PC-3
HT-29 = tested on: HT-29
SK-OV-3 = tested on: SK-OV-3
UACC-257 = tested on: UACC-257
Malme-3M = tested on: Malme-3M
IGROV-1 = tested on: IGROV-1
ACHN = tested on: ACHN
786-0 = tested on: 786-0
COLO 205 = tested on: COLO 205
UACC-62 = tested on: UACC-62
MOLT-4 = tested on: MOLT-4
RPMI-8226 = tested on: RPMI-8226
T47D = tested on: T47D
TK-10 = tested on: TK-10
NCI-H226 = tested on: NCI-H226
CAKI-1 = tested on: CAKI-1
SK-MEL-28 = tested on: SK-MEL-28
MDA-MB-231 = tested on: MDA-MB-231
UO-31 = tested on: UO-31
DU-145 = tested on: DU-145
U-251 = tested on: U-251
OVCAR-3 = tested on: OVCAR-3
Hs-578T = tested on: Hs-578T
SNB-75 = tested on: SNB-75
HOP-62 = tested on: HOP-62
MCF7 = tested on: MCF7
KM12 = tested on: KM12
CCRF-CEM = tested on: CCRF-CEM
MDA-MB-435 = tested on: MDA-MB-435
SK-MEL-5 = tested on: SK-MEL-5
A549 = tested on: A549
HCT-15 = tested on: HCT-15
SN12C = tested on: SN12C
MDA-N = tested on: MDA-N
SF-295 = tested on: SF-295
K562 = tested on: K562
SNB-19 = tested on: SNB-19
SF-268 = tested on: SF-268
HCT-116 = tested on: HCT-116
EKVX = tested on: EKVX
OVCAR-8 = tested on: OVCAR-8
NCI-H522 = tested on: NCI-H522
OVCAR-5 = tested on: OVCAR-5
HL-60 = tested on: HL-60
NCI-H460 = tested on: NCI-H460
LOX IMVI = tested on: LOX IMVI
OVCAR-4 = tested on: OVCAR-4
NCI/ADR-RES = tested on: NCI/ADR-RES
RXF 393 = tested on: RXF 393
NCI-H23 = tested on: NCI-H23
M14 = tested on: M14
HOP-92 = tested on: HOP-92
SR = tested on: SR

In the case of `O=C(O)/C=C(/CC(=O)O)C(=O)O`, the GI50 (A498) is reported as 16.3 µM (inactive), the GI50 (BT-549) is reported as 21.1 µM (inactive) and the GI50 (HCC 2998) is reported as 30.8 µM (inactive). For the same molecule, the GI50 (SF-539) was 12.3 µM (inactive), the GI50 (SK-MEL-2) was 19.5 µM (inactive) and the GI50 (SW-620) was 19 µM (inactive). The GI50 (PC-3) was 19.6 µM (inactive), the GI50 (HT-29) was 21.8 µM (inactive) and the GI50 (SK-OV-3) was 21.5 µM (inactive). The GI50 (UACC-257) was 33.1 µM (inactive), the GI50 (Malme-3M) was 18.7 µM (inactive) and the GI50 (IGROV-1) was 20.9 µM (inactive). The GI50 (ACHN) was 18.1 µM (inactive), the GI50 (786-0) was 17.5 µM (inactive) and the GI50 (COLO 205) was 17.6 µM (inactive). For the same molecule, the GI50 (UACC-62) was 18.2 µM (inactive), the GI50 (MOLT-4) was 19.1 µM (inactive) and the GI50 (RPMI-8226) was 14.9 µM (inactive). For the same molecule, the GI50 (T47D) was 20.2 µM (inactive), the GI50 (TK-10) was 23.2 µM (inactive) and the GI50 (NCI-H226) was 21.6 µM (inactive). The GI50 (CAKI-1) was 20.6 µM (inactive), the GI50 (SK-MEL-28) was 21.2 µM (inactive) and the GI50 (MDA-MB-231) was 21.3 µM (inactive). The GI50 (UO-31) was 17.2 µM (inactive), the GI50 (DU-145) was 19.9 µM (inactive) and the GI50 (U-251) was 19.4 µM (inactive). For the same molecule, the GI50 (OVCAR-3) was 15.7 µM (inactive), the GI50 (Hs-578T) was 19.9 µM (inactive) and the GI50 (SNB-75) was 14.1 µM (inactive). For the same molecule, the GI50 (HOP-62) was 16.7 µM (inactive), the GI50 (MCF7) was 19.3 µM (inactive) and the GI50 (KM12) was 23.8 µM (inactive). The GI50 (CCRF-CEM) was 13.6 µM (inactive), the GI50 (MDA-MB-435) was 18.3 µM (inactive) and the GI50 (SK-MEL-5) was 21 µM (inactive). For the same molecule, the GI50 (A549) was 18.6 µM (inactive), the GI50 (HCT-15) was 22.7 µM and the GI50 (SN12C) was 19.4 µM (inactive). The GI50 (MDA-N) was 22.1 µM (inactive), the GI50 (SF-295) was 18.1 µM (inactive) and the GI50 (K562) was 19.2 µM (inactive). For the same molecule, the GI50 (SNB-19) was 22.2 µM (inactive), the GI50 (SF-268) was 19 µM (inactive) and the GI50 (HCT-116) was 18.2 µM (inactive). For the same molecule, the GI50 (EKVX) was 19.3 µM (inactive), the GI50 (OVCAR-8) was 21.6 µM (inactive) and the GI50 (NCI-H522) was 17.9 µM (inactive). For the same molecule, the GI50 (OVCAR-5) was 38.4 µM (inactive), the GI50 (HL-60) was 21 µM (inactive) and the GI50 (NCI-H460) was 35.2 µM (inactive). The GI50 (LOX IMVI) was 22.7 µM (inactive), the GI50 (OVCAR-4) was 25.8 µM (inactive) and the GI50 (NCI/ADR-RES) was 21 µM (inactive). The GI50 (RXF 393) was 16 µM (inactive), the GI50 (NCI-H23) was 23.2 µM (inactive) and the GI50 (M14) was 18.7 µM (inactive).

For `C=CCN1CCC(OC(=O)C(O)(/C=C\CC)C2CCCC2)CC1` (stereo unspecified), the GI50 (A498) was > 100 µM (inactive), the GI50 (BT-549) was > 100 µM (inactive) and the GI50 (SF-539) was > 100 µM (inactive). For the same molecule, the GI50 (SK-MEL-2) was > 100 µM (inactive), the GI50 (PC-3) was > 100 µM (inactive) and the GI50 (HT-29) was > 100 µM (inactive). For the same molecule, the GI50 (SK-OV-3) was > 100 µM (inactive), the GI50 (UACC-257) was 0.525 µM (active) and the GI50 (Malme-3M) was > 100 µM (inactive). The GI50 (IGROV-1) was > 100 µM (inactive), the GI50 (ACHN) was > 100 µM (inactive) and the GI50 (786-0) was > 100 µM (inactive). The GI50 (COLO 205) was > 100 µM (inactive), the GI50 (UACC-62) was > 100 µM (inactive) and the GI50 (MOLT-4) was > 100 µM (inactive). The GI50 (RPMI-8226) was > 100 µM (inactive), the GI50 (T47D) was > 100 µM (inactive) and the GI50 (TK-10) was > 100 µM (inactive). The GI50 (NCI-H226) was > 100 µM (inactive), the GI50 (CAKI-1) was > 100 µM (inactive) and the GI50 (SK-MEL-28) was > 100 µM (inactive). For the same molecule, the GI50 (MDA-MB-231) was > 100 µM (inactive), the GI50 (UO-31) was > 100 µM (inactive) and the GI50 (DU-145) was > 100 µM (inactive). For the same molecule, the GI50 (U-251) was > 100 µM (inactive), the GI50 (OVCAR-3) was > 100 µM (inactive) and the GI50 (Hs-578T) was > 100 µM (inactive). For the same molecule, the GI50 (SNB-75) was > 100 µM (inactive), the GI50 (HOP-62) was > 100 µM (inactive) and the GI50 (MCF7) was > 100 µM (inactive). The GI50 (HOP-92) was 38.2 µM (inactive), the GI50 (CCRF-CEM) was > 100 µM (inactive) and the GI50 (MDA-MB-435) was > 100 µM (inactive). For the same molecule, the GI50 (SK-MEL-5) was > 100 µM (inactive), the GI50 (A549) was > 100 µM (inactive) and the GI50 (HCT-15) was > 100 µM. The GI50 (SN12C) was > 100 µM (inactive), the GI50 (MDA-N) was > 100 µM (inactive) and the GI50 (SF-295) was > 100 µM (inactive). The GI50 (K562) was > 100 µM (inactive), the GI50 (SNB-19) was > 100 µM (inactive) and the GI50 (SF-268) was > 100 µM (inactive). The GI50 (HCT-116) was > 100 µM (inactive), the GI50 (EKVX) was > 100 µM (inactive) and the GI50 (OVCAR-8) was > 100 µM (inactive). The GI50 (NCI-H522) was > 100 µM (inactive), the GI50 (OVCAR-5) was > 100 µM (inactive) and the GI50 (HL-60) was > 100 µM (inactive). The GI50 (LOX IMVI) was > 100 µM (inactive), the GI50 (OVCAR-4) was > 100 µM (inactive) and the GI50 (NCI/ADR-RES) was > 100 µM (inactive). The GI50 (RXF 393) was > 100 µM (inactive), the GI50 (NCI-H23) was 8.71 µM (inactive) and the GI50 (M14) was > 100 µM (inactive).

For `CCOC(=O)n1[nH]c(=O)n(-c2ccccc2)c1=O`, the GI50 (BT-549) was > 100 µM (inactive), the GI50 (HCC 2998) was > 100 µM (inactive) and the GI50 (SK-MEL-2) was > 100 µM (inactive). The GI50 (SR) was > 100 µM (inactive), the GI50 (SW-620) was > 100 µM (inactive) and the GI50 (PC-3) was > 100 µM (inactive). The GI50 (HT-29) was > 100 µM (inactive), the GI50 (SK-OV-3) was > 100 µM (inactive) and the GI50 (UACC-257) was > 100 µM (inactive). For the same molecule, the GI50 (Malme-3M) was > 100 µM (inactive), the GI50 (IGROV-1) was > 100 µM (inactive) and the GI50 (ACHN) was > 100 µM (inactive). The GI50 (786-0) was > 100 µM (inactive), the GI50 (COLO 205) was > 100 µM (inactive) and the GI50 (UACC-62) was > 100 µM (inactive). For the same molecule, the GI50 (MOLT-4) was > 100 µM (inactive), the GI50 (RPMI-8226) was > 100 µM (inactive) and the GI50 (T47D) was > 100 µM (inactive). For the same molecule, the GI50 (TK-10) was > 100 µM (inactive), the GI50 (NCI-H226) was > 100 µM (inactive) and the GI50 (CAKI-1) was > 100 µM (inactive). For the same molecule, the GI50 (SK-MEL-28) was > 100 µM (inactive), the GI50 (MDA-MB-231) was > 100 µM (inactive) and the GI50 (UO-31) was > 100 µM (inactive). The GI50 (DU-145) was > 100 µM (inactive), the GI50 (U-251) was > 100 µM (inactive) and the GI50 (OVCAR-3) was > 100 µM (inactive). The GI50 (Hs-578T) was > 100 µM (inactive), the GI50 (SNB-75) was > 100 µM (inactive) and the GI50 (HOP-62) was > 100 µM (inactive). For the same molecule, the GI50 (MCF7) was > 100 µM (inactive), the GI50 (KM12) was > 100 µM (inactive) and the GI50 (CCRF-CEM) was > 100 µM (inactive). For the same molecule, the GI50 (MDA-MB-435) was > 100 µM (inactive), the GI50 (SK-MEL-5) was > 100 µM (inactive) and the GI50 (A549) was > 100 µM (inactive). For the same molecule, the GI50 (HCT-15) was > 100 µM, the GI50 (SN12C) was > 100 µM (inactive) and the GI50 (MDA-N) was > 100 µM (inactive). The GI50 (SF-295) was > 100 µM (inactive), the GI50 (K562) was > 100 µM (inactive) and the GI50 (SNB-19) was > 100 µM (inactive). For the same molecule, the GI50 (SF-268) was > 100 µM (inactive), the GI50 (HCT-116) was > 100 µM (inactive) and the GI50 (EKVX) was > 100 µM (inactive). For the same molecule, the GI50 (OVCAR-8) was > 100 µM (inactive), the GI50 (OVCAR-5) was > 100 µM (inactive) and the GI50 (HL-60) was > 100 µM (inactive). For the same molecule, the GI50 (NCI-H460) was > 100 µM (inactive), the GI50 (LOX IMVI) was > 100 µM (inactive) and the GI50 (OVCAR-4) was > 100 µM (inactive). For the same molecule, the GI50 (NCI/ADR-RES) was > 100 µM (inactive), the GI50 (RXF 393) was > 100 µM (inactive) and the GI50 (NCI-H23) was > 100 µM (inactive). For the same molecule, the GI50 (M14) was > 100 µM (inactive).

— ChEMBL document CHEMBL1201862, “PubChem BioAssay data set” (2004)
